Several values for one entry are separate records, joined by “and”; a condition that tells them apart may be missing. Identical values can stand only once.
Key:
GluN1/GluN2B receptors = target: T1, GluN1/GluN2B receptors (Rattus norvegicus, UniProt P35439+Q00960); test: Patch-clamp: modulation of glutamate-induced currents of recombinant GluN1/GluN2B receptors expressed in HEK293 cells; format: cell-based
T1 construct: expressed in transfected cells; host or cells: HEK293 cells (ATCC No. CRL-1573)
Description: To investigate the effect of compounds 11–23 on the activity of NMDARs, electrophysiological measurements were performed on HEK293 cells that were co-transfected with cDNAs containing genes encoding for the rat GluN1-1a and GluN2B subunits. The degree of modulation (E; potentiation/inhibition) for the newly synthesized compounds was determined using the following formula: [drawing 1] where Ie is the value of the current amplitude during glutamate and compound coapplication, and Ia is the current amplitude value for glutamate application. […] The results are presented as mean ± standard error of the mean (SEM), with n equal to the number of independent measurements. One-way analysis of variance (ANOVA) was used for multiple comparisons (unless otherwise stated, a value of P ≤ 0.05 was used for the determination of significance).
We have evaluated the relationship between oxime derivatives 11–23 and their modulatory effect on recombinant GluN1/GluN2B receptors. Due to the […] effect of neurosteroid-based PAMs at NMDARs[20,44]
HEK293 cells (American Type Culture Collection, ATCC No. CRL-1573, Rockville, MD, USA) were cultured in Opti-MEM I (Invitrogen, Carlsbad, CA, USA) supplemented with 5% fetal bovine serum (FBS; PAN Biotech, Aidenbach, Germany) at 37 °C in 5% CO2. 24 h before transfection, HEK293 cells were plated in 24-well plates at a density of 2 × 10^5 cells per well. The next day, the cells were transfected with cDNA encoding rat GluN1-1a (GluN1; GenBank accession number U08261)[56] and GluN2B (GenBank accession number M91562)[57] subunits (in the pCI-neo expression vector), along with green fluorescent protein (GFP; in the pQBI 25 vector, Takara, Tokyo, Japan). Briefly, equal amounts (200 ng) of cDNAs encoding GluN1-1a, GluN2B, and GFP were mixed with 0.6 µl of Matra-A reagent (IBA, Gottingen, Germany) in 50 µL of Opti-MEM I and added to confluent HEK293 cells cultured in 24-well plates. After trypsinization, the cells were resuspended in Opti-MEM I containing 1% FBS, supplemented with 20 mM MgCl2, 1 mM D,L-2-amino-5-phosphonovaleric acid, 3 mM kynurenic acid, and 1 µM ketamine, and plated on 30 mm glass coverslips coated with collagen and poly-L-lysine. Transfected cells were identified by GFP epifluorescence. Electrophysiology experiments were performed 24–48 h after transfection.
Whole-cell current recordings, voltage-clamped at a holding potential of −60 mV, were performed at room temperature using a patch-clamp amplifier (Axopatch 200B; Molecular Devices, Sunnyvale, CA, USA) after capacitance and series resistance (<10 MΩ) compensation (80–90%). NMDAR current responses were low-pass filtered at 2 kHz, digitally sampled at 5 kHz, and analysed using pClamp software (version 10.6; Molecular Devices). Patch pipettes (3–5 MΩ), pulled from borosilicate glass, were filled with an intracellular solution (ICS) containing (in mM): 15 CsCl, 10 BAPTA, 3 MgCl2, 1 CaCl2, 120 gluconic acid, 10 HEPES, and 2 ATP-Mg salt (pH adjusted to 7.2 with CsOH). The extracellular solution (ECS) contained (in mM): 160 NaCl, 2.5 KCl, 0.2 EDTA, 10 glucose, 10 HEPES, and 0.7 CaCl2 (pH adjusted to 7.3 with NaOH). NMDAR responses were induced by 1 µM glutamate and 30 µM glycine. 1% DMSO was present in all control and testing solutions. Solution applications were performed using a microprocessor-controlled multibarrel fast-perfusion system with a solution exchange rate around the cells of ∼10 ms.[58]

in vitro = details: pH 7.4
Description: The reactions were terminated by the addition of four volumes of ice-cold methanol, mixed vigorously, and left at −20 °C for 1h. After that, the samples were centrifuged and the supernatants were analysed by means of ECHO-MS® System (Sciex, Framingham, MA, USA). Zero time points were prepared by adding ice-cold methanol to the mixture of the compound with cofactors before the addition of microsomes. […] Intrinsic clearance (CLint) was calculated using the following formula: [drawing 4] where V is the incubation volume per milligram of microsomal protein (µL mg^−1) and t1/2 is the microsomal half-life.

Stability in rat plasma = format: in vitro ADME; details: rat plasma, 37 °C
Description: Compounds were prepared as 1.6 mg mL^−1 stock solutions in methanol. Then, 20 µL of stock solution was added to 1000 µL of rat plasma (BioIVT, Cat. No. RAT00PLLH-0102307), maintained at 37 °C. Aliquots (50 µL) withdrawn at 0, 8, and 24 h were analyzed by HPLC. An aliquot of plasma was extracted with methanol (450 µL) containing an internal standard, and the solution was vortexed (20 s) and centrifuged at 13 500 rpm for 10 min. The supernatant was transferred to an autosampler vial, and 10 µL was injected into an LC-MS system. The samples were analyzed using an Agilent 6230 TOF LC/MS. Samples were separated on a Waters ACQUITY UPLC CSH Phenyl-Hexyl column (100 × 2.1, 130 Å, 1.7 µm) at a flow rate of 0.3 mL min^−1. […]. The temperature, the flow rate of the nitrogen drying gas, the pressure of the nitrogen nebulizing gas, and the flow rate of the sheath gas were set at 325 °C, 10 L min^−1, 40 psi, […], and 11 L min^−1, respectively. Results are represented as a percentage of the compound remaining in spiked plasma.

T1 sequence (Q00960 27-1482, other chains not shown): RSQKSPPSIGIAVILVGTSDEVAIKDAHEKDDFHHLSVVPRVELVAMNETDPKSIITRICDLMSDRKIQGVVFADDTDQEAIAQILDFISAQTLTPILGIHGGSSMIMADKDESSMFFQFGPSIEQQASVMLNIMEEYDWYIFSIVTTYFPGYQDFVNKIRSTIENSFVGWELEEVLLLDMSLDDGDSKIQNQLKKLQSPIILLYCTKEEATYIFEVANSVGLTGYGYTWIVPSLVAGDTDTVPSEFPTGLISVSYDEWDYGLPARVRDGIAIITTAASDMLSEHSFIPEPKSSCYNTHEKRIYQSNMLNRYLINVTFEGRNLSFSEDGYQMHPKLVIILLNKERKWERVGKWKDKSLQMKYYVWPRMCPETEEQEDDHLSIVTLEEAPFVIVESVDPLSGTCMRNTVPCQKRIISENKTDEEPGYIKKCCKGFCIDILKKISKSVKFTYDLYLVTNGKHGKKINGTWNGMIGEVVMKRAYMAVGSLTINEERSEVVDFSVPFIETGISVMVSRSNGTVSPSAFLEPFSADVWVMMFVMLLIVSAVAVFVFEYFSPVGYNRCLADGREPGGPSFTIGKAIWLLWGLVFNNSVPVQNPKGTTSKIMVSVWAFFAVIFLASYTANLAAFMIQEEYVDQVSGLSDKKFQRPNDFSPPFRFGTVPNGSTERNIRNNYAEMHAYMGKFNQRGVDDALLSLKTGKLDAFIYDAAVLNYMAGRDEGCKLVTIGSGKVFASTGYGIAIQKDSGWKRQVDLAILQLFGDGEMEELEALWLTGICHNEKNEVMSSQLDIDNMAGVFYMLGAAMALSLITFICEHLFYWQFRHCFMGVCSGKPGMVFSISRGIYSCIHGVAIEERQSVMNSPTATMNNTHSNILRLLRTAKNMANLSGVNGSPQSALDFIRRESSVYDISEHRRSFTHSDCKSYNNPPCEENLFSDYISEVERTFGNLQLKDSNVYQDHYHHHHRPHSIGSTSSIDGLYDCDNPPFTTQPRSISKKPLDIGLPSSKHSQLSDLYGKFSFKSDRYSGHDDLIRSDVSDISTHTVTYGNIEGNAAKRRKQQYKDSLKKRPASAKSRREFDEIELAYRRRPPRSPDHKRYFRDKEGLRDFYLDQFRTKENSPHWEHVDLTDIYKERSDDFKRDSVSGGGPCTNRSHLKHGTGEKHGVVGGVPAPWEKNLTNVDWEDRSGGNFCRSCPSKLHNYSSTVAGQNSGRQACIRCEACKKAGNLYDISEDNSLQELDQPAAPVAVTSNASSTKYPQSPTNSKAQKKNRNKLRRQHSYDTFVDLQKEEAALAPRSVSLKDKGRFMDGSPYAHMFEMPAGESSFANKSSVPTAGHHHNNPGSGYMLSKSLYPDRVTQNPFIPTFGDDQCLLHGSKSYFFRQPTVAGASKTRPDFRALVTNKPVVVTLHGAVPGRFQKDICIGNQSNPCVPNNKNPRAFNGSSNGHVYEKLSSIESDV

## CCON=C(C)C1CCC2C3CC=C4CC(OC(=O)CCCC(=O)O)CCC4(C)C3CCC12C (stereo not drawn) [Compound 12, 20-Oxo-pregn-5-en-3β-yl hemiglutarate O-ethyloxime]
GluN1/GluN2B receptors; Emax compared with PES
  Efficacy relative to PES: over 6 fold
GluN1/GluN2B receptors; concentration-response fit, mean ± SEM
  h ± SEM (apparent Hill coefficient): 1.7 ± 0.3
GluN1/GluN2B receptors; half-maximal potentiation of currents evoked by 1 µM glutamate, HEK293, mean ± SEM
  EC50: 8.7 ± 1.1 µM
GluN1/GluN2B receptors; maximal potentiation of currents evoked by 1 µM glutamate and 30 µM glycine, HEK293, mean ± SEM
  Emax: 673 ± 121%
In vitro; 1 h, 10 µM
  Metabolic stability in rat liver microsomes: no detectable metabolism after 60 min
In vitro; rat, microsomes
  half-life at 10 µM: > 1 h
Stability in rat plasma; 8 h
  Stability in rat plasma (% remaining) 8 h: 85.6 ± 1.0 % remaining and 86 ± 1 % remaining
Stability in rat plasma; 24 h
  Stability in rat plasma (% remaining) 24 h: 59.6 ± 0.7 % remaining and 60 ± 1 % remaining
